Common to all, as to type: in vivo
One test deals with Eleusine indica. The test can be described thus: Indoor herbicide activity determination, Seed Treatment; pre-emergence (soil spray). The note with it: Dosage 240 g a.i./ha. Put shortly:
(§1)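 Readout is percent inhibition of fresh weight relative to control plants, determined 21 days after treatment. Soil was sprayed one day after sowing, in a spray tower at 300 mm height and 390 mL/min nozzle flow, onto sandy soil of pH 6.1 with 1% organic matter.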

The test system of a further test is Lolium multiflorum. The test is described as above. The note with it: Dosage 240 g a.i./ha. The essentials:
as §1

The subject of a further test is Alopecurus myosuroides. The test is described as above. The conditions noted are these: Dosage 240 g a.i./ha. The essentials: as §1
The subject of a further test is Leptochloa chinensis. Described as above. The conditions noted are these: Dosage 240 g a.i./ha. Put shortly: as §1
The test system of the next test is Alopecurus japonicus. Described as above. The conditions noted are these: Dosage 240 g a.i./ha. The essentials:
as §1

For another test, the system named is Digitaria sanguinalis. The test can be described thus: Indoor herbicide activity determination, post-emergence (stem and leaf spray at 2-4 leaf stage). The conditions noted are these: 504 h, 60 g a.i./ha, determined 21 days later, read-out: Inhibition rate of fresh weight, Digitaria sanguinalis. An excerpt:
(§2) The testing method for herbicide activity of the compound of the present invention was as follows:
(§3) Post-emergence: an appropriate quantity of seeds of gramineous weeds (Echinochloa crusgalli, Eleusine indica, Digitaria sanguinalis, Alopecurus japonicus, Beckmannia syzigachne, Leptochloa chinensis, Polypogon fugax, Alopecurus aequalis, Lolium multiflorum, Poa annua, Aegilops tauschii, Avena fatua, Alopecurus myosuroides, Alopecurus japonicus and Alopecurus aequalis), broad-leaved weeds (Eclipta prostrata, Amaranthus retroflexus, Rorippa indica, Malachium aquaticum, Veronica polita, Conyza canadensis, Sesbania cannabina, Sagittariatrifolia and Schoenoplectiella juncoides), and Cyperus iria were sown in plastic pots having a diameter of 7 cm and holes at the bottom and filled with nutrient soil (sandy soil, pH 6.1, organic matter 1%) respectively, the seeds were covered with an appropriate amount of soil after being sown, then the soil was wetted with water from the bottom, the seeds were cultured in a constant-temperature illuminated culture room until a 2-4 leaf stage, and stems and leaves underwent spray treatment. After the treatment, the test materials were placed in a laboratory and cultured in the constant-temperature illuminated culture room after the liquid was naturally dry in the shade, and results were determined 21 days later. Inhibition rate of fresh weight % = (1−(fresh weight of treated plants)/(fresh weight of control plants)) × 100% [formula]

A further test has as its system Eclipta prostrata. The description is as above. The note with it: 504 h, 60 g a.i./ha, determined 21 days later, read-out: Inhibition rate of fresh weight, Eclipta prostrata.
Description: as §2, §3

In the next test the test system is Cyperus iria. The test is described as above. The conditions noted are these: 504 h, 60 g a.i./ha, determined 21 days later, read-out: Inhibition rate of fresh weight, Cyperus iria.
Description: as §2, §3

Each structure is given as a SMILES string.

Consider `CC1(C(=O)N[C@H]2C[C@@H](C(=O)O)C2)CC(c2cc(F)cc(Cl)c2)=NO1` (mixture of isomers) [I-132], for which the “Herbicidal activities, Eleusine indica (inhibition rate class)” value in the test with Eleusine indica is “A (A indicates that the inhibition rate was greater than or equal to 80% to 100%)”. Besides, the “Herbicidal activities, Lolium multiflorum (inhibition rate class)” value with Lolium multiflorum was “A (A indicates that the inhibition rate was greater than or equal to 80% to 100%)”. Moreover, the “Herbicidal activities, Alopecurus myosuroides (inhibition rate class)” value with Alopecurus myosuroides is listed as “A (A indicates that the inhibition rate was greater than or equal to 80% to 100%)”. The “Herbicidal activities, Leptochloa chinensis (inhibition rate class)” value with Leptochloa chinensis was “A (A indicates that the inhibition rate was greater than or equal to 80% to 100%)”. For the same compound, the “Herbicidal activities, Alopecurus japonicus (inhibition rate class)” value in the test on Alopecurus japonicus is reported as “A (A indicates that the inhibition rate was greater than or equal to 80% to 100%)”. Also, the inhibition (as a rule, how much of the control response was suppressed) at 60 g/ha with Digitaria sanguinalis lay within 80 to 100%; in the test on Eclipta prostrata it was 60 to 80%; in the test with Cyperus iria, 80 to 100%.

As for `COC(=O)[C@H]1C[C@@H](NC(=O)C2(C)CC(c3cc(F)cc(Cl)c3)=NO2)C1` (mixture of isomers) [I-134], the “Herbicidal activities, Eleusine indica (inhibition rate class)” value with Eleusine indica is given as “A (A indicates that the inhibition rate was greater than or equal to 80% to 100%)”. Besides, in the test with Lolium multiflorum, the “Herbicidal activities, Lolium multiflorum (inhibition rate class)” value is “A (A indicates that the inhibition rate was greater than or equal to 80% to 100%)”. For the same compound, the “Herbicidal activities, Alopecurus myosuroides (inhibition rate class)” value in the test with Alopecurus myosuroides was “A (A indicates that the inhibition rate was greater than or equal to 80% to 100%)”. Further, the “Herbicidal activities, Leptochloa chinensis (inhibition rate class)” value in the test on Leptochloa chinensis is “A (A indicates that the inhibition rate was greater than or equal to 80% to 100%)”. In the test on Alopecurus japonicus, the “Herbicidal activities, Alopecurus japonicus (inhibition rate class)” value is recorded as “A (A indicates that the inhibition rate was greater than or equal to 80% to 100%)”. In addition, the values for the inhibition at 60 g/ha with Digitaria sanguinalis, with Eclipta prostrata and in the test with Cyperus iria were 80 to 100%, 60 to 80% and 80 to 100%, respectively.

With `CC1(C(=O)N[C@H]2C[C@@H](C(=O)O)C2)CC(c2cc(Cl)cc(Cl)c2)=NO1` (mixture of isomers) [I-137], in the test on Eleusine indica, the “Herbicidal activities, Eleusine indica (inhibition rate class)” value is “A (A indicates that the inhibition rate was greater than or equal to 80% to 100%)”. The “Herbicidal activities, Lolium multiflorum (inhibition rate class)” value in the test on Lolium multiflorum was “A (A indicates that the inhibition rate was greater than or equal to 80% to 100%)”. Besides, the “Herbicidal activities, Alopecurus myosuroides (inhibition rate class)” value in the test on Alopecurus myosuroides was “A (A indicates that the inhibition rate was greater than or equal to 80% to 100%)”. Besides, in the test with Leptochloa chinensis, the “Herbicidal activities, Leptochloa chinensis (inhibition rate class)” value is listed as “A (A indicates that the inhibition rate was greater than or equal to 80% to 100%)”. In the test with Alopecurus japonicus, the “Herbicidal activities, Alopecurus japonicus (inhibition rate class)” value is reported as “A (A indicates that the inhibition rate was greater than or equal to 80% to 100%)”. Further, the inhibition at 60 g/ha lay within 80 to 100% in the test on Digitaria sanguinalis, 40 to 60% in the test on Eclipta prostrata and 80 to 100% with Cyperus iria.

As to `COC(=O)[C@H]1C[C@@H](NC(=O)C2(C)CC(c3cc(Cl)cc(Cl)c3)=NO2)C1` (mixture of isomers) [I-139], in the test with Eleusine indica, the “Herbicidal activities, Eleusine indica (inhibition rate class)” value is recorded as “A (A indicates that the inhibition rate was greater than or equal to 80% to 100%)”. Also, in the test on Lolium multiflorum, the “Herbicidal activities, Lolium multiflorum (inhibition rate class)” value is listed as “A (A indicates that the inhibition rate was greater than or equal to 80% to 100%)”. Besides, in the test on Alopecurus myosuroides, the “Herbicidal activities, Alopecurus myosuroides (inhibition rate class)” value is listed as “A (A indicates that the inhibition rate was greater than or equal to 80% to 100%)”. Also, the “Herbicidal activities, Leptochloa chinensis (inhibition rate class)” value with Leptochloa chinensis is listed as “A (A indicates that the inhibition rate was greater than or equal to 80% to 100%)”. The “Herbicidal activities, Alopecurus japonicus (inhibition rate class)” value in the test on Alopecurus japonicus is listed as “A (A indicates that the inhibition rate was greater than or equal to 80% to 100%)”. Also, the inhibition at 60 g/ha with Digitaria sanguinalis was in the range of 80 to 100%; in the test with Eclipta prostrata it was 40 to 60%; in the test with Cyperus iria it was 80 to 100%.

For `CC1(C(=O)N[C@H]2C[C@@H](C(=O)O)C2)CC(c2cc(F)cc(OC(F)(F)F)c2)=NO1` (mixture of isomers) [I-157], in the test on Eleusine indica, the “Herbicidal activities, Eleusine indica (inhibition rate class)” value is on record as “A (A indicates that the inhibition rate was greater than or equal to 80% to 100%)”. Also, in the test with Lolium multiflorum, the “Herbicidal activities, Lolium multiflorum (inhibition rate class)” value is “A (A indicates that the inhibition rate was greater than or equal to 80% to 100%)”. For the same compound, in the test with Alopecurus myosuroides, the “Herbicidal activities, Alopecurus myosuroides (inhibition rate class)” value is recorded as “A (A indicates that the inhibition rate was greater than or equal to 80% to 100%)”. For the same compound, the “Herbicidal activities, Leptochloa chinensis (inhibition rate class)” value with Leptochloa chinensis is “A (A indicates that the inhibition rate was greater than or equal to 80% to 100%)”. Also, the “Herbicidal activities, Alopecurus japonicus (inhibition rate class)” value in the test with Alopecurus japonicus is on record as “A (A indicates that the inhibition rate was greater than or equal to 80% to 100%)”. Further, the inhibition at 60 g/ha in the test with Digitaria sanguinalis lay within 80 to 100%; in the test on Eclipta prostrata it was 60 to 80%; with Cyperus iria, 60 to 80%.

In the case of `COC(=O)[C@H]1C[C@@H](NC(=O)C2(C)CC(c3cc(F)cc(OC(F)(F)F)c3)=NO2)C1` (mixture of isomers) [I-159], the “Herbicidal activities, Eleusine indica (inhibition rate class)” value in the test with Eleusine indica is listed as “A (A indicates that the inhibition rate was greater than or equal to 80% to 100%)”. Also, the “Herbicidal activities, Lolium multiflorum (inhibition rate class)” value in the test with Lolium multiflorum is on record as “A (A indicates that the inhibition rate was greater than or equal to 80% to 100%)”. The “Herbicidal activities, Alopecurus myosuroides (inhibition rate class)” value with Alopecurus myosuroides was “A (A indicates that the inhibition rate was greater than or equal to 80% to 100%)”. Also, the “Herbicidal activities, Leptochloa chinensis (inhibition rate class)” value in the test on Leptochloa chinensis is “A (A indicates that the inhibition rate was greater than or equal to 80% to 100%)”. The “Herbicidal activities, Alopecurus japonicus (inhibition rate class)” value in the test with Alopecurus japonicus is “A (A indicates that the inhibition rate was greater than or equal to 80% to 100%)”. In addition, the inhibition at 60 g/ha lay in the range of 80 to 100% with Digitaria sanguinalis, 60 to 80% with Eclipta prostrata and 60 to 80% with Cyperus iria.

On to `O=C(N[C@H]1C[C@@H](C(=O)O)C1)C1(C(F)(F)F)CC(c2cc(F)cc(Cl)c2)=NO1` (mixture of isomers) [I-223], for which the “Herbicidal activities, Eleusine indica (inhibition rate class)” value with Eleusine indica is recorded as “A (A indicates that the inhibition rate was greater than or equal to 80% to 100%)”. In addition, the “Herbicidal activities, Lolium multiflorum (inhibition rate class)” value in the test on Lolium multiflorum is listed as “A (A indicates that the inhibition rate was greater than or equal to 80% to 100%)”. Moreover, the “Herbicidal activities, Alopecurus myosuroides (inhibition rate class)” value in the test with Alopecurus myosuroides is reported as “A (A indicates that the inhibition rate was greater than or equal to 80% to 100%)”. Also, in the test with Leptochloa chinensis, the “Herbicidal activities, Leptochloa chinensis (inhibition rate class)” value is on record as “A (A indicates that the inhibition rate was greater than or equal to 80% to 100%)”. Further, the “Herbicidal activities, Alopecurus japonicus (inhibition rate class)” value with Alopecurus japonicus is given as “A (A indicates that the inhibition rate was greater than or equal to 80% to 100%)”. The inhibition at 60 g/ha was in the range of 80 to 100% with Digitaria sanguinalis, 60 to 80% in the test with Eclipta prostrata and 80 to 100% in the test with Cyperus iria.

In the case of `COC(=O)[C@H]1C[C@@H](NC(=O)C2(C(F)(F)F)CC(c3cc(F)cc(Cl)c3)=NO2)C1` (mixture of isomers) [I-225], the “Herbicidal activities, Eleusine indica (inhibition rate class)” value in the test on Eleusine indica was “A (A indicates that the inhibition rate was greater than or equal to 80% to 100%)”. The “Herbicidal activities, Lolium multiflorum (inhibition rate class)” value in the test with Lolium multiflorum was “A (A indicates that the inhibition rate was greater than or equal to 80% to 100%)”. In addition, the “Herbicidal activities, Alopecurus myosuroides (inhibition rate class)” value in the test on Alopecurus myosuroides is given as “A (A indicates that the inhibition rate was greater than or equal to 80% to 100%)”. Besides, the “Herbicidal activities, Leptochloa chinensis (inhibition rate class)” value with Leptochloa chinensis is “A (A indicates that the inhibition rate was greater than or equal to 80% to 100%)”. Further, the “Herbicidal activities, Alopecurus japonicus (inhibition rate class)” value in the test on Alopecurus japonicus is reported as “A (A indicates that the inhibition rate was greater than or equal to 80% to 100%)”. Further, the inhibition at 60 g/ha was 80 to 100% in the test on Digitaria sanguinalis, 60 to 80% in the test on Eclipta prostrata and 80 to 100% in the test on Cyperus iria.

Turning to `O=C(N[C@H]1C[C@@H](C(=O)O)C1)C1(C(F)(F)F)CC(c2cc(Cl)cc(Cl)c2)=NO1` (relative stereo) [I-229], the “Herbicidal activities, Eleusine indica (inhibition rate class)” value in the test on Eleusine indica is given as “A (A indicates that the inhibition rate was greater than or equal to 80% to 100%)”. In addition, the “Herbicidal activities, Lolium multiflorum (inhibition rate class)” value in the test with Lolium multiflorum is “A (A indicates that the inhibition rate was greater than or equal to 80% to 100%)”. The “Herbicidal activities, Alopecurus myosuroides (inhibition rate class)” value in the test with Alopecurus myosuroides is “A (A indicates that the inhibition rate was greater than or equal to 80% to 100%)”. The “Herbicidal activities, Leptochloa chinensis (inhibition rate class)” value in the test on Leptochloa chinensis was “A (A indicates that the inhibition rate was greater than or equal to 80% to 100%)”. Also, the “Herbicidal activities, Alopecurus japonicus (inhibition rate class)” value with Alopecurus japonicus is reported as “A (A indicates that the inhibition rate was greater than or equal to 80% to 100%)”. Besides, the inhibition at 60 g/ha in the test with Digitaria sanguinalis is 80 to 100%; in the test on Eclipta prostrata, 60 to 80%; with Cyperus iria, 80 to 100%.
